According to PubChem BioAssay (NCI):
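Cells were grown in 96-well plates and exposed to each compound for 48 hours at five concentrations; endpoints were interpolated linearly between bracketing concentrations, or set to the highest concentration if not reached. TGI: concentration producing complete growth inhibition.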

Key:
Test in all cases: NCI tumour cell line growth inhibition, 48 h
DMS 114 small cell lung = test system: DMS 114 small cell lung
M19-MEL melanoma = test system: M19-MEL melanoma
DLD-1 colon = test system: DLD-1 colon
KM20L2 colon = test system: KM20L2 colon
RXF-631 renal = test system: RXF-631 renal
LXFL 529 NSCLC = test system: LXFL 529 NSCLC
HOP-18 NSCLC = test system: HOP-18 NSCLC
XF 498 CNS = test system: XF 498 CNS
SN12K1 renal = test system: SN12K1 renal
P388 leukemia = test system: P388 leukemia

SMILES: Cc1cc(OCC(O)CO)ccc1Cl (stereo not drawn)
- TGI (DMS 114 small cell lung): > 100 µM
- TGI (M19-MEL melanoma): > 100 µM
- TGI (DLD-1 colon): > 100 µM
- TGI (KM20L2 colon): > 100 µM
- TGI (RXF-631 renal): > 100 µM
- TGI (LXFL 529 NSCLC): > 100 µM
- TGI (HOP-18 NSCLC): > 100 µM

SMILES: OC(CCl)CN1CC[N+]2(CC1)CC[N+]1(CCN(CC(O)CCl)CC1)CC2 (stereo not drawn)
- TGI (XF 498 CNS): > 50 µM
- TGI (DMS 114 small cell lung): > 50 µM
- TGI (M19-MEL melanoma): > 50 µM
- TGI (KM20L2 colon): > 50 µM
- TGI (LXFL 529 NSCLC): > 50 µM
- TGI (HOP-18 NSCLC): > 50 µM

SMILES: CC(C)(C)CC(C)(C)NCC(O)COc1ccc(C(C)(C)c2ccc(OCC(O)CNC(C)(C)CC(C)(C)C)cc2)cc1 (stereo not drawn)
- TGI (XF 498 CNS): 3.02 µM
- TGI (DMS 114 small cell lung): 3.21 µM
- TGI (M19-MEL melanoma): 2.88 µM
- TGI (DLD-1 colon): 2.06 µM
- TGI (KM20L2 colon): 2.88 µM
- TGI (LXFL 529 NSCLC): 1.3 µM

SMILES: COc1ccc(C2=NN(c3nsc4ccccc34)C(=O)CC2)cc1
- TGI (DMS 114 small cell lung): > 100 µM
- TGI (M19-MEL melanoma): > 100 µM
- TGI (KM20L2 colon): > 100 µM
- TGI (LXFL 529 NSCLC): > 100 µM
- TGI (HOP-18 NSCLC): > 100 µM

SMILES: CSc1nc(-c2ccccc2)nc(=[N+]2CCOCC2)s1
- TGI (M19-MEL melanoma): > 100 µM
- TGI (DLD-1 colon): > 100 µM
- TGI (KM20L2 colon): > 100 µM
- TGI (LXFL 529 NSCLC): > 100 µM
- TGI (HOP-18 NSCLC): > 100 µM

SMILES: Nc1ncc2c(n1)-c1ccccc1OC2
- TGI (SN12K1 renal): > 100 µM
- TGI (XF 498 CNS): > 100 µM
- TGI (DMS 114 small cell lung): > 100 µM
- TGI (P388 leukemia): > 100 µM
- TGI (M19-MEL melanoma): > 100 µM
- TGI (DLD-1 colon): > 100 µM
- TGI (KM20L2 colon): > 100 µM
- TGI (HOP-18 NSCLC): > 100 µM

SMILES: O=S(=O)(O)c1cc(N=[N+]([O-])c2ccc(N=Nc3ccccc3)cc2S(=O)(=O)O)ccc1/C=C/c1ccc(N=[N+]([O-])c2ccc(N=Nc3ccccc3)cc2S(=O)(=O)O)cc1S(=O)(=O)O
- TGI (SN12K1 renal): > 31.6 µM
- TGI (XF 498 CNS): > 100 µM
- TGI (DMS 114 small cell lung): > 100 µM
- TGI (P388 leukemia): > 100 µM
- TGI (M19-MEL melanoma): > 100 µM
- TGI (DLD-1 colon): > 100 µM
- TGI (HOP-18 NSCLC): > 100 µM

SMILES: Cc1ccc(S(=O)(=O)N/N=C\c2c3ccccc3[n+](C)c3ccccc23)cc1
- TGI (DMS 114 small cell lung): > 100 µM
- TGI (M19-MEL melanoma): > 100 µM
- TGI (DLD-1 colon): > 100 µM
- TGI (KM20L2 colon): > 100 µM
